Key:
cultured cancer cells = assay: Induction of apoptosis of cultured cancer cells; format: cell-based, human
Protocol: RKO, HCT-116 (another human colorectal cancer cell line), and H1299 (a human non-small cell cancer line) cells that had been treated with test compounds for various times were washed twice with ice-cold PBS and lysed in a lysis buffer (BioVision) on ice for 10 minutes, followed by centrifugation at 15,000×g for 10 minutes. Caspase-3 activity, which is a measure if the initiation of apoptotic cell death, was determined in the supernatant by a colorimeric assay kit (BioVision Inc., Palo Alto, Calif., United States of America) using the p-nitroanilide-labeled peptide, DEVD-pNA, as substrate. Caspase-3 activity was monitored by the release of p-nitroanilide from the substrate at 405 nm. The fold increase in caspase-3 activity is shown in FIG. 9, and was calculated by comparing the absorbance of p-nitroanilide from vehicle treated controls and those treated with sulindac sulfide and its analogs. […]

PPARγ = PPARγ reporter assay in transfected HEK293 cells; format: cell-based; conditions: transfected cells in culture
Protocol: Human embryonic kidney cells (HEK293 cells) were purchased from American Type Culture Collection (ATCC) and maintained in Dulbecco's modified Eagle's medium (DMEM) with GIBCO™ GLUTAMAX™ (Invitrogen Corp., Carlsbad, Calif., United States of America) and 10% heat-inactivated FBS (Atlas Biological, Fort Collins, Colo., United States of America) or 10% charcoal-stripped FBS (HyClone, Logan, Utah, United States of America) in a 5% CO2 constant humidity 37° C. incubator. 9×10^5 HEK293 cells were plated in DMEM supplemented with 10% charcoal-stripped FBS. 18-24 hours after plating, cells were transfected with a control Renilla luciferase expressing plasmid (0.2 μg pCMV-renilla luciferase from Promega Corp., Madison, Wis., United States of America), 0.4 μg PPARγ-GAL4, and 0.4 μg UAS-tk-luc using a lipid ratio of 8 μL Effectene Transfection Reagent (Qiagen Inc., Valencia, Calif., United States of America) per 1 μg DNA in 3 mL of DMEM+10% charcoal-stripped FBS. Cells remained in the transfection mixture overnight until the transfection media was replaced with DMEM+10% charcoal-stripped serum containing ligands of interest or vehicle (0.1% DMSO) […]

C57/BL6 mice = assay: Toxicity in vivo, daily injections; conditions: daily injections of a series of concentrations

COc1ccc2c(c1)c(CC(=O)O)cn2C(=O)c1ccc(Cl)cc1 [2-Des-methylindomethacin, [1-(4-Chloro-benzoyl)-5-methoxy-1H-indol-3-yl]-acetic acid]
ability to induce apoptosis of cultured cancer cells, compared with parent drug (cultured cancer cells): as active or more active than the parent drug | ability to activate PPARγ-mediated transcription in transfected cells, compared with parent drug (PPARγ): as active or more active than the parent drug | less toxic than indomethacin (C57/BL6 mice): at least 25 fold

CSc1ccc(C=C2C=C(CC(=O)O)c3cc(F)ccc32)cc1 [eindenic acid sulfide, [6-Fluoro-3-(4-methylsulfanyl-benzylidene)-3H-inden-1-yl]-acetic acid]
ability to induce apoptosis of cultured cancer cells, compared with parent drug (cultured cancer cells): considerably more active than sulindac sulfide | ability to activate PPARγ-mediated transcription in transfected cells, compared with parent drug (PPARγ): considerably more active than sulindac sulfide

From patent US8168656B2, “Indoleacetic acid and indenacetic acid derivatives as therapeutic agents with reduced gastrointestinal toxicity” (Vanderbilt University, priority 2009, dated 2012)
